The source of these data is US6365607B1, “Anticachectic composition” (Takeda Chemical Industries, Ltd., priority 1996, dated 2002).

The test system of assay [1] is tumor-bearing mice (mouse colon cancer cell line Colon 26). Kind of assay: Weight loss inhibitory activity in tumor-bearing mice (Colon 26 cachexia model). The format is in vivo. The following applies: CDF1 mice. Here is the method: Using the mouse colon cancer cell line Colon 26 (Tanaka et al., Cancer Research, 50, 4528-4532 (1990)), which is a system known to be high in the reproducibility of cancer cachectic symptoms, the inhibitory effect of the compound of the present invention on lipolysis and body weight loss was evaluated.
Thus, 1×10^6 Colon 26 cells were transplanted sub-dermaly in 4-week-old CDF1 mice. On day 14 after transplantation, the mice were divided into groups according to tumor size. A 5% (w/v) gum arabic suspension containing compound (2) was administered orally in a dose of 1.0 mg/kg to one group of mice and, as a control, a 5% (w/v) gum arabic suspension was similarly administered to another group, once daily for 7 days in each case. An additional group of mice was not transplanted with Colon 26 cells (normal group). On days 14, 18 and 21 after transplantation, the mice were weighed. On day 22 after transplantation, each mouse was autopsied and the epididymis adipose tissue was isolated and weighed. Changes in mouse body weight and adipose tissue weight are shown in Table 1 and Table 2, respectively.

The subject of assay [2] is fat cells in rat epididymis adipose tissue. Put plainly: Antilipolytic activity: glycerol released from IL-1β-treated rat fat cells. The format is cell-based. As to conditions: read-out: antilipolytic concentration IC50. The protocol:
In accordance with the method of Green et al. [Endocrinology, 134, 2581-2588 (1994)], the antilipolytic activity of the compound of the present invention was evaluated by quantitating the glycerol released from fat cells in rat epididymis adipose tissue.
Thus, the rat epididymis adipose tissue was isolated, cut into pieces with a pair of scissors, and digested into fat cells by agitating in collagenase-containing phosphate buffer for 1 hour. To a culture solution containing fat cells was added 10 ng/ml of IL-1β (manufactured by Pharmingen, PM-19101V). Then, in treatment groups, solutions of compound (2) in N,N-dimethylformamide at graded concentrations were respectively added. After 24 hours, the supernatant was recovered and the glycerol therein was quantitated with an assay kit (manufactured by Sigma, 337-A). The amount of released glycerol in each group treated with compound (2) relative to that in the control group was determined to find the inhibition rate and the 50% inhibition concentration IC50 of the compound was calculated. The antilipolytic concentration IC50 value of compound (2) was 4 nM.
The antilipolytic activity of indomethacin was evaluated by the same method as in Test Example 1. The antilipolytic concentration IC50 value of indomethacin was not less than 10 mM.

Like-named read-outs stand apart in the source and are kept apart here.

Take `Cc1oc(-c2ccccc2)nc1C(O)COc1ccc(CC2SC(=O)NC2=O)cc1` (centres unmarked) [compound (2), 5-[4-[2-hydroxy-2-(5-methyl-2-phenyl-4-oxazolyl)ethoxy]benzyl]-2,4-thiazolidinedione]: the “body weight of tumor-bearing mice, 21st Day after transplantation” value in assay [1] (1.0 mg/kg orally once daily for 7 days from day 14) stood at 25.6 g. In addition, the “body weight of tumor-bearing mice, 18th Day after transplantation” value in assay [1] (1.0 mg/kg orally once daily from day 14) is listed as 26.3 g. Further, the “body weight of tumor-bearing mice, 14th Day after transplantation” value in assay [1] (day 14 (grouping, start of dosing), 1.0 mg/kg orally once daily for 7 days) is listed as 26.3 g. Also, the IC50 in assay [2] (inhibition of glycerol release, 10 ng/ml IL-1β, 24 hours) is 0.004 µM.
For `COc1ccc2c(c1)c(CC(=O)O)c(C)n2C(=O)c1ccc(Cl)cc1` [indomethacin, reference compound], the IC50 in assay [2] (same method as Test Example 1 (glycerol release, IL-1β, 24 hours)) is at least 10000 µM.
